Experimental data from patent EP4477653A1 (Perha Pharmaceuticals, priority 2023, dated 2024).

What follows are molecules tested against T1, human recombinant A3AR (expressed in HEK-293 cells) (Homo sapiens, UniProt P0DMS8) (assay: Adenosine receptors antagonism assay (Eurofins), [125I]-AB-MECA radioligand competition). Conditions: [125I]-AB-MECA 0.15 nM, r.t., 120 min; IC50 from dose-response curves; read-out: Potency Class A3AR.
T1 construct: host or cells: HEK-293 cells
T1 sequence (P0DMS8 1-318): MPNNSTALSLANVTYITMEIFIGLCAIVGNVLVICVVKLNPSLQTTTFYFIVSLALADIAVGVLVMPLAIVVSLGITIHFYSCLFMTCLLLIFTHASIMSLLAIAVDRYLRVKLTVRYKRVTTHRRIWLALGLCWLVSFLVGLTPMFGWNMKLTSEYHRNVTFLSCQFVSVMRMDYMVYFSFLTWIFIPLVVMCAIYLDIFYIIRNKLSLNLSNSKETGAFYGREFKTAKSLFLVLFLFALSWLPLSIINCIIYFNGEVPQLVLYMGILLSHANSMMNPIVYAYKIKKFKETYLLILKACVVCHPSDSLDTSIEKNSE
Assay type: binding

SMILES	IC50 [nM]
CCC(CC)Nc1cc(N2Cc3ccccc3C2)c2nnc(C(C)C)n2n1 [compound 79, N-(1-ethylpropyl)-8-isoindolin-2-yl-3-isopropyl-[1,2,4]triazolo[4,3-b]pyridazin-6-amine]	100 to 1000
CCC(CC)Nc1cc(NCCCc2ccccn2)c2nnc(C(C)C)n2n1 [compound 89, N6-(1-ethylpropyl)-3-isopropyl-N8-[3-(2-pyridyl)propyl]-[1,2,4]triazolo[4,3-b]pyridazine-6,8-diamine]	10 to 100
CCC(CC)Nc1cc(NCc2ncccn2)c2nnc(C(C)C)n2n1 [compound 92, N6-(1-ethylpropyl)-3-isopropyl-N8-(pyrimidin-2-ylmethyl)-[1,2,4]triazolo[4,3-b]pyridazine-6,8-diamine]	10 to 100
CCC(CC)Nc1cc(NCc2cncnc2)c2nnc(C(C)C)n2n1 [compound 93, N6-(1-ethylpropyl)-3-isopropyl-N8-(pyrimidin-5-ylmethyl)-[1,2,4]triazolo[4,3-b]pyridazine-6,8-diamine]	1 to 10
CCC(CC)Nc1cc(NCc2cnccn2)c2nnc(C(C)C)n2n1 [compound 94, N6-(1-ethylpropyl)-3-isopropyl-N8-(pyrazin-2-ylmethyl)-[1,2,4]triazolo[4,3-b]pyridazine-6,8-diamine]	1 to 10
CCC(CC)Nc1cc(NCc2cccnn2)c2nnc(C(C)C)n2n1 [compound 95, N6-(1-ethylpropyl)-3-isopropyl-N8-(pyridazin-3-ylmethyl)-[1,2,4]triazolo[4,3-b]pyridazine-6,8-diamine]	1 to 10
CCC(CC)Nc1cc(NC(=O)c2ccccc2)c2nnc(C(C)C)n2n1 [compound 96, N-[6-(1-ethylpropylamino)-3-isopropyl-[1,2,4]triazolo[4,3-b]pyridazin-8-yl]benzamide]	10 to 100
CCC(CC)Nc1cc(NC(=O)c2ccccn2)c2nnc(C(C)C)n2n1 [compound 97, N-[6-(1-ethylpropylamino)-3-isopropyl-[1,2,4]triazolo[4,3-b]pyridazin-8-yl]pyridine-2-carboxamide]	10 to 100
CCOC(=O)Nc1cc(NC(CC)CC)nn2c(C(C)C)nnc12 [compound 99, ethyl N-[6-(1-ethylpropylamino)-3-isopropyl-[1.2.4]triazolo[4,3-b]pyridazin-8-yl]carbamate]	1 to 10
CC[C@@H](CO)Nc1cc(NCc2ccc(Br)cc2)c2nnc(C(C)C)n2n1 [compound 101, (2S)-2-[[8-[(4-bromophenyl)methylamino]-3-isopropyl-[1,2,4]triazolo[4,3-b]pyridazin-6-yl]amino]butan-1-o1]	10 to 100
CC[C@@H](CO)Nc1cc(NCc2ccc(-c3ccccc3)cc2)c2nnc(C(C)C)n2n1 [compound 102, (2S)-2-[[3-isopropyl-8-[(4-phenylphenyl)methylamino]-[1,2,4]triazolo[4,3-b]pyridazin-6-yl]amino]butan-1-ol]	10 to 100
CC[C@@H](CO)Nc1cc(NCc2ccc(-c3ccncc3)cc2)c2nnc(C(C)C)n2n1 [compound 103, (2S)-2-[[3-isopropyl-8-[[4-(4-pyridyl)phenyl]methylamino]-[1,2,4]triazolo[4,3-b]pyridazin-6-yl]amino]butan-1-ol]	10 to 100
CC[C@@H](CO)Nc1cc(NCc2ccc(-c3cccnc3)cc2)c2nnc(C(C)C)n2n1 [compound 104, (2S)-2-[[3-isopropyl-8-[[4-(3-pyridyl)phenyl]methylamino]-[1,2,4]triazolo[4,3-b]pyridazin-6-yl]amino]butan-1-ol]	10 to 100
CC[C@@H](CO)Nc1cc(NCc2ccc(-c3ccccn3)cc2)c2nnc(C(C)C)n2n1 [compound 105, (2S)-2-[[3-isopropyl-8-[[4-(2-pyridyl)phenyl]methylamino]-[1,2,4]triazolo[4,3-b]pyridazin-6-yl]amino]butan-1-ol]	10 to 100
CC(C)c1nnc2c(NCc3ccc(Br)cc3)cc(N[C@H](CO)[C@@H](C)O)nn12 [compound 106, (2R,3R)-2-[[8-[(4-bromophenyl)methylamino]-3-isopropyl-[1,2,4]triazolo[4,3-b]pyridazin-6-yl]amino]butane-1,3-diol]	100 to 1000
CC(C)c1nnc2c(NCc3ccc(-c4ccccn4)cc3)cc(N[C@H](CO)[C@@H](C)O)nn12 [compound 107, (2R,3R)-2-[[3-isopropyl-8-[[4-(2-pyridyl)phenyl]methylamino]-[1,2,4]triazolo[4,3-b]pyridazin-6-yl]amino]butane-1,3-diol]	10 to 100
CC(C)c1nnc2c(NCc3ccc(-c4ccncc4)cc3)cc(N[C@H](CO)[C@@H](C)O)nn12 [compound 108, (2R,3R)-2-[[3-isopropyl-8-[[4-(4-pyridyl)phenyl]methylamino]-[1,2,4]triazolo[4,3-b]pyridazin-6-yl]amino]butane-1,3-diol]	100 to 1000
COCCCNc1cc(NCCCOC)c2nnc(-c3ccccc3)n2n1 [compound 109, N6,N8-bis(3-methoxypropyl)-3-phenyl-[1,2,4]triazolo[4,3-b]pyridazine-6,8-diamine]	100 to 1000
COCCCNc1cc(NCCCOC)c2nnc(C3CC3)n2n1 [compound 110, 3-cyclopropyl-N6,N8-bis(3-methoxypropyl)-[1,2,4]triazolo[4,3-b]pyridazine-6,8-diamine]	10 to 100
COCCCNc1cc(NCCCOC)c2nnc(C(F)(F)F)n2n1 [compound 111, N6,N8-bis(3-methoxypropyl)-3-(trifluoromethyl)-[1,2,4]triazolo[4,3-b]pyridazine-6,8-diamine]	10 to 100
COCCNc1cc(NCCOC)c2nnc(C(C)C)n2n1 [compound 112, 3-isopropyl-N6,N8-bis(2-methoxyethyl)-[1,2,4]triazolo[4,3-b]pyridazine-6,8-diamine]	100 to 1000
CC[C@H](CO)Nc1cc(N[C@H](CC)CO)c2nnc(C(C)C)n2n1 [compound 113, (2R)-2-[[6-[[(1R)-1-(hydroxymethyl)propyl]amino]-3-isopropyl-[1,2,4]triazolo[4,3-b]pyridazin-8-yl]amino]butan-1-ol]	100 to 1000
CCC(CC)Nc1cc(NC(CC)CC)c2nnc(C(C)C)n2n1 [compound 114, N6,N8-bis(1-ethylpropyl)-3-isopropyl-[1,2,4]triazolo[4,3-b]pyridazine-6,8-diamine]	1 to 10
CC[C@H](CO)Nc1nn2c(C(C)C)nnc2c(NCc2ccccc2)c1C [compound 115, (2R)-2-[[8-(benzylamino)-3-isopropyl-7-methyl-[1,2,4]triazolo[4,3-b]pyridazin-6-yl]amino]butan-1-ol]	100 to 1000
CNc1cc(NCc2ccc(Br)cc2)c2nnc(C(C)C)n2n1 [compound 116, N8-[(4-bromophenyl)methyl]-3-isopropyl-N6-methyl-[1,2,4]triazolo[4,3-b]pyridazine-6,8-diamine]	100 to 1000

Second part, the molecule after the results:

IC50 [nM]	SMILES
1 to 10	CCC(CC)Nc1cc(N2CCc3ccccc3C2)c2nnc(C(C)C)n2n1 [compound 80, 8-(3,4-dihydro-1H-isoquinolin-2-yl)-N-(1-ethylpropyl)-3-isopropyl-[1,2,4]triazolo[4,3-b]pyridazin-6-amine]
1 to 10	CCC(CC)Nc1cc(NCCc2ccccc2)c2nnc(C(C)C)n2n1 [compound 82, N6-(1-ethylpropyl)-3-isopropyl-N8-(2-phenylethyl)-[1,2,4]triazolo[4,3-b]pyridazine-6,8-diamine]
< 1	CCC(CC)Nc1cc(NCCc2ccccn2)c2nnc(C(C)C)n2n1 [compound 83, N6-(1-ethylpropyl)-3-isopropyl-N8-[2-(2-pyridyl)ethyl]-[1,2,4]triazolo[4,3-b]pyridazine-6,8-diamine]
1 to 10	CCC(CC)Nc1cc(NCCc2cccnc2)c2nnc(C(C)C)n2n1 [compound 84, N6-(1-ethylpropyl)-3-isopropyl-N8-[2-(3-pyridyl)ethyl]-[1,2,4]triazolo[4,3-b]pyridazine-6,8-diamine]
1 to 10	CCC(CC)Nc1cc(NCCc2ccncc2)c2nnc(C(C)C)n2n1 [compound 85, N6-(1-ethylpropyl)-3-isopropyl-N8-[2-(4-pyridyl)ethyl]-[1,2,4]triazolo[4,3-b]pyridazine-6,8-diamine]
< 1	CCC(CC)Nc1cc(NCCc2ccccn2)c2nnc(C3CC3)n2n1 [compound 86, 3-cyclopropyl-N6-(1-ethylpropyl)-N8-[2-(2-pyridyl)ethyl]-[1,2,4]triazolo[4,3-b]pyridazine-6,8-diamine]
< 1	CCC(CC)Nc1cc(NCCc2cccnc2)c2nnc(C3CC3)n2n1 [compound 87, 3-cyclopropyl-N6-(1-ethylpropyl)-N8-[2-(3-pyridyl)ethyl]-[1,2,4]triazolo[4,3-b]pyridazine-6,8-diamine]
1 to 10	CCC(CC)Nc1cc(NCCc2ccncc2)c2nnc(C3CC3)n2n1 [compound 88, 3-cyclopropyl-N6-(1-ethylpropyl)-N8-[2-(4-pyridyl)ethyl]-[1,2,4]triazolo[4,3-b]pyridazine-6,8-diamine]
1 to 10	CCC(CC)Nc1cc(NCCCc2cccnc2)c2nnc(C(C)C)n2n1 [compound 90, N6-(1-ethylpropyl)-3-isopropyl-N8-[3-(3-pyridyl)propyl]-[1,2,4]triazolo[4,3-b]pyridazine-6,8-diamine]
1 to 10	CCC(CC)Nc1cc(NCCCc2ccncc2)c2nnc(C(C)C)n2n1 [compound 91, N6-(1-ethylpropyl)-3-isopropyl-N8-[3-(4-pyridyl)propyl]-[1,2,4]triazolo[4,3-b]pyridazine-6,8-diamine]
< 1	CCC(CC)Nc1cc(NC(=O)Cc2ccccc2)c2nnc(C(C)C)n2n1 [compound 98, N-[6-(1-ethylpropylamino)-3-isopropyl-[1,2,4]triazolo[4,3-b]pyridazin-8-yl]-2-phenyl-acetamide]
